Reference: ChEMBL document CHEMBL1201862, “PubChem BioAssay data set” (2004)
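Cells were grown in 96-well plates and exposed to each compound for 48 hours at five concentrations; endpoints were interpolated linearly between bracketing concentrations, or set to the highest concentration if not reached. GI50 marks 50% less growth.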 Activity calls are given as the source filed them. Cut-off read from the data, not from the text of the source: active = GI50 up to about 1.1 µM and inactive = higher.

How the values were obtained:
Test in all cases: growth of human tumour cells (NCI), 48 h
A549 = system: A549
ACHN = system: ACHN
BT-549 = system: BT-549
CCRF-CEM = system: CCRF-CEM
COLO 205 = system: COLO 205
DU-145 = system: DU-145
EKVX = system: EKVX
HCT-116 = system: HCT-116
HL-60 = system: HL-60
HOP-62 = system: HOP-62
HOP-92 = system: HOP-92
IGROV-1 = system: IGROV-1
M14 = system: M14
MCF7 = system: MCF7
MDA-N = system: MDA-N
MOLT-4 = system: MOLT-4
Malme-3M = system: Malme-3M
NCI-H23 = system: NCI-H23
NCI-H460 = system: NCI-H460
OVCAR-3 = system: OVCAR-3
OVCAR-5 = system: OVCAR-5
OVCAR-8 = system: OVCAR-8
SF-268 = system: SF-268
SK-MEL-28 = system: SK-MEL-28
SK-MEL-2 = system: SK-MEL-2
SK-MEL-5 = system: SK-MEL-5
SK-OV-3 = system: SK-OV-3
SN12C = system: SN12C
SR = system: SR
U-251 = system: U-251
UACC-257 = system: UACC-257
UACC-62 = system: UACC-62
UO-31 = system: UO-31
786-0 = system: 786-0
A498 = system: A498
CAKI-1 = system: CAKI-1
HCC 2998 = system: HCC 2998
HCT-15 = system: HCT-15
HT-29 = system: HT-29
Hs-578T = system: Hs-578T
K562 = system: K562
KM12 = system: KM12
LOX IMVI = system: LOX IMVI
MDA-MB-231 = system: MDA-MB-231
MDA-MB-435 = system: MDA-MB-435
NCI-H226 = system: NCI-H226
NCI-H522 = system: NCI-H522
NCI/ADR-RES = system: NCI/ADR-RES
PC-3 = system: PC-3
RPMI-8226 = system: RPMI-8226
RXF 393 = system: RXF 393
SF-295 = system: SF-295
SF-539 = system: SF-539
SNB-19 = system: SNB-19
SNB-75 = system: SNB-75
SW-620 = system: SW-620
T47D = system: T47D
TK-10 = system: TK-10

Measured: GI50

CC1(C)[C@H](O)CC[C@]2(C)C3=CC[C@@]4(C)[C@@H]5C[C@](C)(CO)CC[C@]5(C)CC[C@]4(C)C3=CC[C@@H]12
inactive: A549 1.75 µM | ACHN 2.13 µM | BT-549 > 100 µM | CCRF-CEM 1.63 µM | COLO 205 3.23 µM | DU-145 > 100 µM | EKVX > 100 µM | HCT-116 2.01 µM | HL-60 > 100 µM | HOP-62 > 100 µM | HOP-92 > 100 µM | IGROV-1 > 100 µM | M14 > 100 µM | MCF7 > 100 µM | MDA-N > 100 µM | MOLT-4 > 100 µM | Malme-3M > 100 µM | NCI-H23 > 100 µM | NCI-H460 1.91 µM | OVCAR-3 1.79 µM | OVCAR-5 > 100 µM | OVCAR-8 2.07 µM | SF-268 > 100 µM | SK-MEL-28 > 100 µM | SK-MEL-2 > 100 µM | SK-MEL-5 > 100 µM | SK-OV-3 > 100 µM | SN12C 2.1 µM | SR 1.75 µM | U-251 1.84 µM | UACC-257 > 100 µM | UACC-62 > 100 µM | UO-31 1.98 µM

CCCCc1ccc(-n2c(C)c(COC(=O)NC)c(COC(=O)NC)c2C)cc1
active: A498 1.1 µM | NCI-H226 1.05 µM | SR 0.818 µM
inactive: 786-0 4.08 µM | A549 6.08 µM | ACHN 2.11 µM | CAKI-1 2.86 µM | CCRF-CEM 2.92 µM | COLO 205 7.21 µM | DU-145 6.98 µM | EKVX 13 µM | HCC 2998 12.7 µM | HCT-116 4.08 µM | HL-60 3.56 µM | HOP-62 8.97 µM | HOP-92 2.74 µM | HT-29 11.1 µM | Hs-578T 16.6 µM | K562 6.03 µM | KM12 12.7 µM | LOX IMVI 4.65 µM | M14 6.12 µM | MCF7 4.76 µM | MDA-MB-231 4.9 µM | MDA-MB-435 12.5 µM | MDA-N 13.2 µM | Malme-3M 6.07 µM | NCI-H23 7.28 µM | NCI-H460 3.81 µM | NCI-H522 2.64 µM | NCI/ADR-RES 5.55 µM | OVCAR-3 12.1 µM | OVCAR-5 4.78 µM | OVCAR-8 4.16 µM | PC-3 10.9 µM | RPMI-8226 4.47 µM | RXF 393 2.84 µM | SF-268 4.81 µM | SF-295 8.61 µM | SF-539 4.37 µM | SK-MEL-28 19.1 µM | SK-MEL-5 11.4 µM | SK-OV-3 3.76 µM | SN12C 3.54 µM | SNB-19 13.9 µM | SNB-75 7.73 µM | SW-620 6.46 µM | T47D 5.66 µM | TK-10 2.28 µM | U-251 4.92 µM | UACC-257 10.6 µM | UACC-62 2.29 µM | UO-31 2.7 µM
6.18 µM: HCT-15
